From article PMC9403976, “Elucidating the path to Plasmodium prolyl-tRNA synthetase inhibitors that overcome halofuginone resistance” (Nature Communications, 2022)
pIC50, pKd: −log10 of the molar value. Where “and” joins values, the source holds several entries; their conditions need not be identical. Equal values may be shown once. Read-outs that look alike come from different tables or passages of the source.

Columns and labels:
P. falciparum Dd2-2D4 = test: P. falciparum asexual blood stage (ABS) growth assay, SYBR Green, 72 h, wild-type parasites; assay type: cell-based, Plasmodium falciparum; conditions: for EC50: Plasmodium falciparum, DD2
[1] = test system: halofuginone-induced P. falciparum (elevated proline homeostasis); test: P. falciparum ABS growth assay, SYBR Green, 72 h, halofuginone-induced parasites; assay type: cell-based, Plasmodium falciparum; conditions: for EC50: Plasmodium falciparum, DD2
Description: (§1) Parasites were maintained under standard culture conditions as described previously[56],[57]. […] The P. falciparum Dd2 cell lines used in this study (Dd2-2D4, halofuginone-induced, and HFGR-I) have previously undergone whole genome sequencing in our labs. They were also routinely assayed and EC50 values determined using the ABS growth assay (see below) with a panel of standard antimalarial compounds, including halofuginone which has differential activity for the three Dd2 lines used in these experiments. Data were cross-referenced for consistency with literature reported values and data previously acquired in the lab.
(§2) This assay was performed as previously described. In short, P. falciparum erythrocytic-stage parasites at 1% parasitemia and 1% hematocrit in RPMI + 0.5% Albumax were seeded at 40 μL/well in 384-well plates with test compounds in triplicate, dose-response format with 10 μM dihydroartemisinin as a kill-control and blank (no compound) wells as a growth-control. […] After 72 h, growth was quantified by measuring fluorescence (Molecular Devices SpectraMax iD5) following SYBR Green 1 staining. Data were analyzed in Excel and plotted in PRISM (V. 8.4.3–9.1.0, GraphPad).

[2] = test system: HFGR-I P. falciparum (elevated proline homeostasis and PfcProRS^L482H); test: P. falciparum ABS growth assay, SYBR Green, 72 h, HFGR-I parasites; assay type: cell-based, Plasmodium falciparum; conditions: for EC50: Plasmodium falciparum, DD2, read-out: Dd2 (EC50 [nM]) HFGR1 mean
Description: as §1, §2

HsProRS = HsProRS (Homo sapiens, UniProt P07814); test: TR-FRET ligand displacement assay with tracer MAT379 (CoraFluor-1-Halo and anti-His6 antibody formats); assay type: binding; design: made in house; host or cells: E. coli SoluBL-21
Sequence of HsProRS (P07814 996-1512): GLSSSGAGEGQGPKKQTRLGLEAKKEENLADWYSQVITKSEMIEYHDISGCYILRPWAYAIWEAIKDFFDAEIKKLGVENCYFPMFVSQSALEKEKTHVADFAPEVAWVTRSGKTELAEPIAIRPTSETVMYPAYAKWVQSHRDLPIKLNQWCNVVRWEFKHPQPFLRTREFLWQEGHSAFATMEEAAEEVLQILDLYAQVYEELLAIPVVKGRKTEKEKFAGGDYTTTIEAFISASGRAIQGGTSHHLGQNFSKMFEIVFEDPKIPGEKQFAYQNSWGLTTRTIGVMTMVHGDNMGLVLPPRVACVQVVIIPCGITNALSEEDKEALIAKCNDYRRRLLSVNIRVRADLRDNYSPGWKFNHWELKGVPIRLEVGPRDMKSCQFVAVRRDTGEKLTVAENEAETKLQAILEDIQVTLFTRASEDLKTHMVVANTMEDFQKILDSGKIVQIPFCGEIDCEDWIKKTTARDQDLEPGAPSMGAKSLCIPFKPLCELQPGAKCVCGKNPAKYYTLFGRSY

PfcProRS = target: T1, PfcProRS (Plasmodium falciparum, UniProt Q8I5R7); assay type: binding; conditions: for Normalized response, dose-response replicates (SI Fig 14): replicates 1-3; for PfcProRS -- best Kd: SI Fig 16a, values on -log scale
T1 construct: made in house; host or cells: E. coli SoluBL-21
T1 sequence (Q8I5R7 249-746): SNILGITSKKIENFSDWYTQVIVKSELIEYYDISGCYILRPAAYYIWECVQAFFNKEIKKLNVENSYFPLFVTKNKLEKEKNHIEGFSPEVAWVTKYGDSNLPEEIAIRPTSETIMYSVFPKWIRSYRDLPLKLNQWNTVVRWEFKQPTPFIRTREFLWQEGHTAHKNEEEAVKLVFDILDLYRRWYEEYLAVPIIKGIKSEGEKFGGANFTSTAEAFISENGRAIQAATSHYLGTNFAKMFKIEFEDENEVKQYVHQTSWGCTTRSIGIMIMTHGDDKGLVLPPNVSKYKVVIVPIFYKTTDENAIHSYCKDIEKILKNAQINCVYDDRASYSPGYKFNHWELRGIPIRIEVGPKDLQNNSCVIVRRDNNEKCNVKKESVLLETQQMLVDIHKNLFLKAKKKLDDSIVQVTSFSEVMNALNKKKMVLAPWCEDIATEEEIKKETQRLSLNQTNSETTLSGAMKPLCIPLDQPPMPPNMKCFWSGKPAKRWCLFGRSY

[3] = SI Fig 16b, values on -log scale, read-out: ABS - Dd2-2D4 (converted)
[4] = HsProRS (KD [nM]) + 100 μM proline mean, + 100 μM proline

Row | SMILES | EC50 (P. falciparum Dd2-2D4; [3]) | EC50 [2] | Kd (HsProRS; [4]) | Normalized response, dose-response replicates (SI Fig 14) (PfcProRS; Log[inhibitor] (M) -5.000) | Normalized response, dose-response replicates (SI Fig 14) (PfcProRS; Log[inhibitor] (M) -5.301) | Normalized response, dose-response replicates (SI Fig 14) (PfcProRS; Log[inhibitor] (M) -5.601) | Normalized response, dose-response replicates (SI Fig 14) (PfcProRS; Log[inhibitor] (M) -5.904) | Normalized response, dose-response replicates (SI Fig 14) (PfcProRS; Log[inhibitor] (M) -6.208) | Normalized response, dose-response replicates (SI Fig 14) (PfcProRS; Log[inhibitor] (M) -6.509) | Normalized response, dose-response replicates (SI Fig 14) (PfcProRS; Log[inhibitor] (M) -6.796) | Normalized response, dose-response replicates (SI Fig 14) (PfcProRS; Log[inhibitor] (M) -7.108) | Normalized response, dose-response replicates (SI Fig 14) (PfcProRS; Log[inhibitor] (M) -7.409) | Normalized response, dose-response replicates (SI Fig 14) (PfcProRS; Log[inhibitor] (M) -7.710) | Normalized response, dose-response replicates (SI Fig 14) (PfcProRS; Log[inhibitor] (M) -8.000) | Normalized response, dose-response replicates (SI Fig 14) (PfcProRS; Log[inhibitor] (M) -8.301) | Normalized response, dose-response replicates (SI Fig 14) (PfcProRS; Log[inhibitor] (M) -8.602) | Normalized response, dose-response replicates (SI Fig 14) (PfcProRS; Log[inhibitor] (M) -9.000) | Normalized response, dose-response replicates (SI Fig 14) (PfcProRS; Log[inhibitor] (M) -9.301) | PfcProRS -- best Kd (PfcProRS) | also measured
1 | Nc1ncnc2c1ncn2[C@@H]1O[C@H](COS(=O)(=O)NC(=O)[C@H]2CCCN2)[C@@H](O)[C@H]1O [D-ProSA, reference compound] | 2550 nM | 2430 nM | – | – | – | – | – | – | – | – | – | – | – | – | – | – | – | – | – | EC50 (P. falciparum Dd2-2D4; read-out: Dd2 (EC50 [nM]) wildtype (Dd2-2D4) mean): 2550 nM; EC50 ([1]; read-out: Dd2 (EC50 [nM]) halofuginone-induced mean): 2730 nM
2 | CC(C)N(C(=O)Nc1nccnc1C(=O)NC1Cc2ccccc2C1)C(C)C [MAT107 (5)] | – | 6850 nM | 1020 nM | – | – | – | – | – | – | – | – | – | – | – | – | – | – | – | – | % signal at 10 μM, wildtype (Dd2-2D4) (P. falciparum Dd2-2D4; wildtype (Dd2-2D4), 10 μM): 80.9%; EC50 ([1]; halofuginone-induced, bound given in μM, read-out: Dd2 EC50 halofuginone-induced, bound): > 10000 nM; % signal at 10 μM, halofuginone-induced ([1]; halofuginone-induced, 10 μM): 58.7%; pIC50 (HsProRS): < 5.00; HsProRS % signal at 10 μM (HsProRS; no added proline/ATP (-), 10 μM): 63.6%
3 | CC(C)(C)OC(=O)NCCCCCC(=O)NC1CCN(C(=O)Nc2nccnc2C(=O)NC2Cc3ccccc3C2)CC1 [compound 41] | 2110 nM | – | 561 nM | 2.54E-01 and 1.79E-01 and 1.37E-01 | 2.59E-01 and 1.90E-01 and 1.97E-01 | 2.56E-01 and 2.59E-01 and 2.72E-01 | 5.14E-01 and 5.00E-01 and 4.61E-01 | 7.49E-01 and 5.18E-01 and 5.00E-01 | 8.38E-01 and 7.48E-01 and 7.12E-01 | 9.37E-01 and 8.75E-01 and 9.23E-01 | 9.89E-01 and 8.01E-01 and 8.98E-01 | 9.10E-01 and 9.82E-01 and 9.58E-01 | 9.67E-01 and 1.08E+00 and 8.83E-01 | 9.89E-01 and 1.01E+00 and 9.34E-01 | 1.15E+00 and 9.52E-01 and 9.87E-01 | 1.13E+00 and 1.02E+00 and 1.04E+00 | 9.78E-01 and 9.94E-01 and 1.01E+00 | 1.02E+00 and 9.71E-01 and 8.87E-01 | 6.740 | dose-response value, Replicates 1-3 (SI Fig 2f) ([2]; Log[inhibitor] (M) -6.638): 97; pKd (HsProRS; HsProRS - best Kd, SI Fig 16a, values on -log scale): 6.86
4 | NCCCCCC(=O)NC1CCN(C(=O)Nc2nccnc2C(=O)NC2Cc3ccccc3C2)CC1 [compound 42] | 3120 nM | – | 780 nM | 2.49E-01 and 1.76E-01 and 2.08E-01 | 3.00E-01 and 2.27E-01 and 1.95E-01 | 3.22E-01 and 3.31E-01 and 4.26E-01 | 5.98E-01 and 5.09E-01 and 6.07E-01 | 6.69E-01 and 7.19E-01 and 7.06E-01 | 8.50E-01 and 8.42E-01 and 7.76E-01 | 8.57E-01 and 7.95E-01 and 8.50E-01 | 9.38E-01 and 9.24E-01 and 9.33E-01 | 8.48E-01 and 9.09E-01 and 8.32E-01 | 1.01E+00 and 1.02E+00 and 9.56E-01 | 9.91E-01 and 1.13E+00 and 9.71E-01 | 9.70E-01 and 1.02E+00 and 1.00E+00 | 1.01E+00 and 9.47E-01 and 9.02E-01 | 1.03E+00 and 8.54E-01 and 9.74E-01 | 1.02E+00 and 9.76E-01 and 9.47E-01 | 6.530 | dose-response value, Replicates 1-3 (SI Fig 2f) ([2]; Log[inhibitor] (M) -8.699): 97; Kd (HsProRS; HsProRS (KD [nM]) mean, no added proline/ATP (-)): 674 nM
